Several values for one entry are separate records, joined by “and”; a condition that tells them apart may be missing. Equal entries are not always repeated.

The nature of the series: solvent given as SMILES.

With `CCn1c2ccccc2c2cc(/C=C/c3cc(/C=C/c4ccc5c(c4)c4ccccc4n5CC)ncn3)ccc21`, the absorption maximum runs as follows: (in C1CCOC1) 397 nm; (in CCOC(C)=O) 395 nm; (in CN(C)C=O) 405 nm; (in Cc1ccccc1) 397 nm; (in ClCCl) 405 nm.
As for `CC1(C)CC(/C=C/c2ccc(-n3cccn3)cc2)=CC(=C(C#N)C#N)C1`, the absorption maximum stood at 405 nm (in C1CCOC1); 397 nm (in CC#N); 404 nm (in CCO); 403 nm (in CCOC(C)=O); 404 nm (in ClCCl); 407 nm (in c1ccccc1).
`C(=C\c1c2ccccc2cc2ccccc12)/c1cnc2ccccc2c1`: the absorption maximum was 386 nm (in CC1CCCCC1) and 386 nm (in CC#N).
Regarding `O=c1c2ccccc2nc2ccc(-c3ccc(-c4ccc(N(c5ccccc5)c5ccccc5)cc4)cc3)cn12`, under “in ClCCl”, the absorption maximum was 362 nm.
Compound `COc1ccc2c(c1)SC1=Nc3sc4cc(OC)ccc4[n+]3CN12` came in with an absorption maximum (in CO) of 405 nm.
As for `CCCCN(CCCC)c1ccc2c#cc3cc4c#cc5ccc(C(F)(F)F)cc5c#cc#cc5cc(N(CCCC)CCCC)ccc5c#cc4cc3c#cc3ccc(C(F)(F)F)cc3c#cc#cc2c1`, the absorption maximum (in ClCCl) is reported as 472 nm.
Where the note is “in C1COCCO1”, `COC(=O)c1ccc(/C=C2\C=C(c3ccc(C#N)cc3)N(CC(C)C)C2=O)cc1` returned an absorption maximum of 438 nm.
`Oc1ccccc1/C=N/c1cc2nc3ccccc3nc2cc1/N=C/c1ccccc1O` displayed an absorption maximum (in CC#N) of 403 nm.
As for `F[B-]1(F)Oc2ccc3ccccc3c2-c2c3c(c4c([n+]21)CCc1ccccc1-4)CCc1ccccc1-3`, for the setting “in ClCCl”, the absorption maximum was 346 nm.
With `F[B-]1(F)n2c(-c3cccs3)cc(-c3ccccc3)c2N=C2C(c3ccccc3)=CC(c3cccs3)=[N+]21`, the absorption maximum worked out at 710 nm (in CC#N) and 718 nm (in ClCCl).
In turn, `O=C(NCc1ccccc1)c1sc(-c2ccc(-c3cc(C4CC4)c(C(=O)NCc4ccccc4)s3)s2)cc1C1CC1` gave an absorption maximum (in ClCCl) of 393 nm.
`O=c1c2cc(F)c(N3CCOCC3)cc2sc2cc(N3CCOCC3)c(F)cc12` registered an absorption maximum (in CCO) of 361 nm.
Take `N#Cc1c(N2CCCCC2)cc(-c2ccc3ccc4cccc5ccc2c3c45)c2c1-c1ccccc1C2=O`: the absorption maximum (in C1CCOC1) came to 393 nm.
In the case of `CCOC(=O)c1ccccc1-c1c2ccc(=[N+](CC)CC)cc-2oc2c1c(=O)oc1cc(N(CC)CC)ccc12`, the absorption maximum by setting is: (in CCO) 595 nm; (in ClC(Cl)Cl) 601 nm; (in O) 596 nm.
For `CN(C)c1ccc(/C=C/C(=C(C#N)C#N)c2ccc3c4c(cccc24)CC3)cc1`, the absorption maximum is listed as 488 nm (in C1CCOC1); 494 nm (in CC#N); 492 nm (in CC(C)=O); 497 nm (in CCOC(C)=O); 505 nm (in CN(C)C=O); 496 nm (in CO). This compound also had an absorption maximum (in Cc1ccccc1) of 487 nm and an absorption maximum (in ClC(Cl)Cl) of 483 nm.
Regarding `CC1=C(/C=C/c2ccccc2)C2=Cc3c(/C=C/c4ccccc4)c(C)c(C)n3[B-](F)(F)[N+]2=C1C`, the absorption maximum (in CC#N) is 572 nm.
The same measure, in the same setting: the value for `COc1ccc(-n2nc(C#N)c(N3CCCCCC3)n2)cc1` was 344 nm.
For the setting “in ClC(Cl)Cl”, `F[B-]1(F)n2cccc2C(c2ccccc2)=C2C=CC(c3ccc(OC4=[N+]5C(=C(c6ccccc6)c6cc(Br)c(Br)n6[B-]5(F)F)C=C4Br)cc3)=[N+]21` registered an absorption maximum of 562 nm.
For the setting “in C1CCOC1”, `COC(=O)C1(C(=O)OC)Cc2c(C#Cc3ccccc3)c(-c3ccccc3)c3c(-c4ccccc4)c(-c4ccccc4)c(-c4ccccc4)c(-c4ccccc4)c3c2C1` came in with an absorption maximum of 339.52 nm.
`F[B-]1(F)OC(c2ccccc2)=CC(c2ccccc2)=[O+]1`: the absorption maximum is, setting by setting: (in CC#N) 376 nm; (in ClC(Cl)(Cl)Cl) 375 nm.
With `CCCCn1c2ccccc2c2ccc3c4cc(-c5cccc(F)c5)ccc4n(CCCC)c3c21`, for the setting “in ClC(Cl)Cl”, the absorption maximum is given as 328 nm.
`Cn1c(=O)c(/N=N/c2ccc(/N=N/c3ccc(S(=O)(=O)O)cc3)cc2)c(O)c2ccccc21`: the absorption maximum is given as 454 nm (in C1CCOC1); 453 nm (in CC(C)=O); 452 nm (in CCOC(C)=O); 452 nm (in CO); 460 nm (in CS(C)=O); 458 nm (in Cc1ccccc1). The absorption maximum reads like this: (in ClCCl) 457 nm; (in O) 447 nm.
As for `O=C1CCCC2=C1C(c1ccccc1)c1c(c3ccccc3oc1=O)N2` (configuration not stated), the absorption maximum (in CS(C)=O) is on record as 368 nm.
Regarding `CCCCC(CC)Cn1c2cc(C#N)ccc2c2cc(-c3ccc(N(c4ccccc4)c4ccccc4)cc3)c(C#N)cc21` (configuration not stated), under “in ClCCl”, the absorption maximum was found to be 398 nm.
`c1ccc2cc3c(cc2c1)oc1c2oc4cc5ccccc5cc4c2c2ccccc2c31` had an absorption maximum (in C1CCOC1) of 395 nm.
`CN(C)c1ccc(/C=C/c2ccc([N+](=O)[O-])c(O)c2)cc1`: for the setting “in C1COCCO1”, the absorption maximum came out at 448 nm.
`Cc1ccc2nc3cc4c(cc3c(-c3ccccc3)c2c1)[Si](C)(C)O[Si]4(C)C`: the absorption maximum (in ClCCl) worked out at 370 nm.
`CN(C)c1ccc(/C=C/c2cc[n+](C)cc2)cc1`: the absorption maximum is 483 nm (in C1CCOC1); 473 nm (in CC1COC(=O)O1); 470 nm (in CC#N); 474 nm and 468 nm (in CC(C)=O); 477 nm (in CC(C)O); 480 nm (in CCO). For the same compound, the absorption maximum is 464 nm (in CCOC(C)=O); 476 nm and 474 nm (in CO); 471 nm (in CS(C)=O); 500 nm (in ClC(Cl)Cl); 522 nm (in ClCCl); 448 nm (in O). In addition, the absorption maximum (in c1ccncc1) is reported as 494 nm.
With `c1ccc(-n2c(-c3ccc(-c4ccc5c(c4)C4(c6ccccc6-c6ccccc64)c4cc(-c6ccc(-c7nc8ccccc8n7-c7ccccc7)cc6)c6ccccc6c4-5)cc3)nc3ccccc32)cc1`, the absorption maximum (in ClC(Cl)Cl) was 359 nm.
On to `CC(C)(C)c1ccc2c(c1)c1cc(C(C)(C)C)ccc1n2-c1cc(N2c3ccccc3C(c3ccccc3)(c3ccccc3)c3ccccc32)cc(-n2c3ccc(C(C)(C)C)cc3c3cc(C(C)(C)C)ccc32)c1C#N`, for which the absorption maximum (in Cc1ccccc1) came out at 378 nm.
The compound `c12c3c4c5c1c1c6c7c2c2c8c3c3c9c4c4c%10c5c5c1c1c6c6c%11c%12c%13c%14c%15c%16c%17c%14c%14c%18c%13c%11c1c1c5c%10c5c(c%14c%10c%17c%11c%13c%16c%14c%16c%15c%12c%12c%16c(c2c7c%126)c2c8c3c(c%13c%142)c2c9c4c5c%10c%112)c%181` had an absorption maximum (in CC1CCCCC1) of 470 nm.
For the compound `CC1=[N+]2C(=C(c3ccc(C#N)cc3)c3ccc(C)n3[B-]2(F)F)C=C1`, the absorption maximum runs as follows: (in C1CCCCC1) 517 nm; (in C1CCOC1) 516 nm; (in CC#N) 512 nm; (in CCOC(C)=O) 513 nm; (in CO) 513 nm; (in Cc1ccccc1) 519 nm. This compound had an absorption maximum (in ClC(Cl)Cl) of 519 nm.
As to `CC(C)(C)c1cccc2c(O)cccc12`, the absorption maximum (in O) worked out at 296 nm.
As to `CC(C)(C)c1ccc(-c2ccc(-c3c4c(nc5ccccc35)-c3cc5c(cc3CC4)-c3nc4ccccc4c(-c4ccc(-c6ccc(C(C)(C)C)cc6)cc4)c3CC5)cc2)cc1`, the absorption maximum (in ClC(Cl)Cl) stood at 376 nm.
`c1ccc(-c2ccc3c(c2)c2cc(-c4ccccc4)ccc2n3-c2ccc3c(c2)c2cc(-n4c5ccc(-c6ccccc6)cc5c5cc(-c6ccccc6)ccc54)ccc2n3-c2ccc(-c3nc(-c4ccccc4)nc(-c4ccccc4)n3)cc2)cc1` came in with an absorption maximum (in Cc1ccccc1) of 362 nm.
For `O=C1OC(=O)[C@H]2[C@@H]1[C@@H]1C[C@H]2c2c1c(-c1ccccc1)c1ccccc1c2-c1ccccc1`, for the setting “in ClC(Cl)Cl”, the absorption maximum turned out to be 295 nm.
As to `CCc1c(C)[nH]c(C2=[N+]3C(=Cc4c(C)c(CC)c(/C=C/c5ccc(N(C)C)cc5)n4[B-]3(F)F)c3ccccc32)c1C`, the absorption maximum is on record as 720 nm (in C1CCOC1); 713 nm (in CC#N); 719 nm (in CCCCCC); 712 nm (in CO); 730 nm (in Cc1ccccc1); 725 nm (in ClCCl).
The compound `CC(C)(C)c1ccc2c(c1)c1cc(C(C)(C)C)cc3c1n2-c1cc(-c2cccc(F)c2)cc2c1B3c1cc(C(C)(C)C)cc3c4cc(C(C)(C)C)ccc4n-2c13` showed an absorption maximum (in Cc1ccccc1) of 467.1 nm.
As for `CC(=O)[B-]1(C(C)=O)OC(c2ccc3ccccc3c2)=CC(c2ccc3ccccc3c2)=[O+]1`, the absorption maximum was determined as 420 nm (in CC#N) and 415 nm (in ClC(Cl)(Cl)Cl).
In the case of `C(=C\c1c[nH]c2ccccc12)/c1cc[n+]2ccc(/C=C/c3c[nH]c4ccccc34)cc2c1`, the absorption maximum (in CO) came to 489 nm.
`COc1ccc(C2CC(c3ccc(O)cc3)=NN2c2ccc(S(N)(=O)=O)cc2)cc1` (configuration not stated): the absorption maximum worked out at 359 nm (in C1CCOC1); 360 nm (in C1COCCO1); 358 nm (in CC#N); 358 nm (in CC(C)O); 358 nm (in CCO); 358 nm (in CCOC(C)=O). Further, the absorption maximum (in CN(C)C=O) is given as 361 nm, the absorption maximum (in CO) came out at 357 nm, the absorption maximum (in CS(C)=O) worked out at 364 nm and the absorption maximum (in O) is 360 nm.
On to `Cn1c(=O)c(/N=N/c2cc(S(=O)(=O)O)ccc2S(=O)(=O)O)c(O)c2ccccc21`, for which the absorption maximum is 428 nm (in C1CCOC1); 421 nm (in CC(C)=O); 423 nm (in CCOC(C)=O); 422 nm (in CO); 419 nm (in CS(C)=O); 430 nm (in Cc1ccccc1). Also, the absorption maximum came to 415 nm (in ClCCl) and 413 nm (in O).
With `O=c1oc2ccccc2c2c1c(=O)oc1c3ccccc3cc(O)c12`, the absorption maximum by setting is: (in CS(C)=O) 480 nm; (in ClCCl) 447 nm.

For the origin of these results see the Deep4Chem optical property database.
